Test results from US20090042861A1, “Prophylactic or Therapeutic Agent for Depression or Anxiety Disorder” (Takeda Pharmaceutical Company Limited, priority 2005, published 2009).

Legend:
male Wister (Jcl) rats [1] = assay: Water-drinking conflicting test; assay type: in vivo, rat; conditions: Example 1
Method: Animal: male Wister (Jcl) rats were purchased at the age of 8 weeks old, and used at the age of 9 weeks old.
First, rats were put in a separate cage, and abstained from water for two days under light-dark (12-hour cycle) condition. On the day of experiment, rats were habituated to the experiment room for more than 60 minutes, and administered intraperitoneally with 30 mg/kg of compound A, 30 mg/kg of melatonin or vehicle, and then test was carried out 30 minutes after the administration.
The drug used (compound A, melatonin) was suspended in 0.5% methylcellulose physiological saline to adjust dosage to 2 mL/kg, and administered intraperitoneally. To the vehicle administration group, a 0.5% methylcellulose physiological saline was administered in the same way. All administrations and trials were performed between 9:00 and 12:00.
In the present experiment, when the animals pre-raised under a water-deprived condition drink water, they are placed in a conflicting state that they get electroshocked under the following condition.
Test Time: 300 seconds, Shock Condition: in case either 20 times of lick frequency or 2 seconds of lick time is satisfied
Shock ON Time: 2 seconds, Time-out: 180 seconds, Stimulus Intensity: 0.6 mA
Animal: male Wister (Jcl) rats were purchased at the age of 8 weeks old, and used at the age of 9 weeks old. Drug Administration Group and Test Method: Test was carried out for the following conditions. (each group n=10)
Compound A and Diazepam were suspended in 0.5% methylcellulose solution to adjust dosage to 2 mL/kg, and administered intraperitoneally. To control group, a 0.5% methylcellulose physiological saline for injection was administered as vehicle. As a drug solution to be combined, a drug solution having twice concentration of final concentration was prepared, and adjusted to final concentration by mixing equal amounts. A dose of 2 mL/kg was administered intraperitoneally, respectively. All administrations and trials were performed between 9:00 and 13:00.
First, rats were put in a separate cage, and abstained from water for two days under light-dark (12-hour cycle) condition. On the day of experiment, rats were habituated to the experiment room for more than 60 minutes, and each drug was administered intraperitoneally, and then test was carried out 30 minutes after the administration.
Significant difference test was performed with using Williams' test for vehicle administration group and multigroup drug administration groups. t-Test was used for vehicle administration group and single drug administration groups. A dose of compound A (0.3, 10 and 30 mg/kg) and 0.3 mg/kg of Diazepam were administered in combination.

male Wister (Jcl) rats [2] = assay: Elevated plus-maze test; assay type: in vivo, rat; conditions: Example 3
Method: Animal: male Wister (Jcl) rats were purchased at the age of 5 weeks old, and used at the age of 6 weeks old.
An elevated plus-maze test equipment having arm 50 cm long by 10 cm wide was used. Its height was 40 cm, and the height of closed arm was adjusted to the same. Black was used as the color of wall. Lighting in experiment room was set to 5 lux of illuminance on the equipment.
The animals were handled from 2 days before test. Test was carried out between 8 a.m. and […]., and the animals were naturalized in the conduct test room at a measurement illuminance from 1 hour before the start of test.
The drug used (compound A, melatonin) was suspended in 0.5% methylcellulose physiological saline to adjust dosage to 2 mL/kg, and administered intraperitoneally. To the vehicle administration group, a 0.5% methylcellulose physiological saline was administered in the same way.
In the elevated plus-maze test, the animal was put in the central region of maze with the head to the direction of closed arm, and the conduct of 5 minutes duration was observed. Measurement items were number of entries into open arms and time spent in open arms which were used as an indicator of anxiety conducts, and it was considered that the more the number of entries into open arms, time spent in open arms and dipping frequency are, the less the anxiety conducts are. Further, the number of entries into closed arms was counted, which was used as an indicator of amount of motor-activity. […] Test was performed with n=10 for each group. Trial was carried out over 2 days, and 2 days' data were summed up as one test.
Significant difference test was performed with using Williams' test for vehicle administration group and multigroup drug administration groups.

male ICR (Jcl) mice = assay: Mouse tail suspension test; assay type: in vivo; conditions: for moving power at the trial of tail suspension test: FIGS. 9, 10
Method: Action on immobility and moving power in a single application test of Paroxetine and compound A Used Animals: male ICR (Jcl) mice of 6 weeks old were used. Drug Administration Group and Test Method: Test was carried out for the following conditions. (each group n=12)
(§1) Paroxetine was dissolved in 0.5% methylcellulose physiological saline, and compound A was suspended in 0.5% methylcellulose aqueous solution for injection. To control group, a 0.5% methylcellulose physiological saline for injection was administered as vehicle. A dose of 20 ml/kg was administered intraperitoneally, respectively. Administration was carried out 30 minutes before trial of tail suspension.
Animals were put in a 5-row-cage with 8 each cage, and fully habituated. Drug administrations and trials were performed between 13:00 and 17:00.
An automated measuring equipment made according to the method of Steru (Psycopharmacology 85, 367-370, 1985) was used for measurement. The mouse was suspended by the tail in a soundproof box (16 cm×38 cm×33 cm) divided individually, and then the immobility rate of 10 minutes duration was measured. Tail suspension was carried out by fixing a 5 cm wire to a sensor and suspending the mouse with fixing its tail with a tape at the end of the wire. By weighing every 10 msec, the movement of the mouse was calculated through A/D converter as moving power for one second. The moving power of less than 1% of body weight of mouse was considered to be in the immobile state, and the immobility rate for every one minute was measured. Test was carried out for 10 minutes, and all the experiments were controlled with personal computer (NEC-9801).
Action on immobility and moving power in a combined application test of Paroxetine and compound A Used Animals: male ICR (Jcl) mice of 6 weeks old were used. Drug Administration Group and Test Method: Test was carried out for the following conditions. (each group n=15-16)
as §1, with “vehicle. As a drug solution to be combined, a drug solution having twice concentration of final concentration was prepared, and adjusted to final concentration by mixing equal amounts.” for “vehicle.”

## CCC(=O)NCC[C@@H]1CCc2ccc3c(c21)CCO3 [Compound A, (S)-N-[2-(1,6,7,8-Tetrahydro-2H-indeno[5,4-b]furan-8-yl)ethyl]propionamide]
Male Wister (Jcl) rats [1]; 30 mg/kg intraperitoneally, test 30 minutes after administration, vs vehicle group, Williams' test, FIG. 1
  lick frequency: significant increasing effect
Male Wister (Jcl) rats [1]; 30 mg/kg intraperitoneally, test 30 minutes after administration, vs vehicle group, Williams' test, FIG. 2
  shock frequency: significant increasing effect
Male Wister (Jcl) rats [2]; intraperitoneal, 5 minutes observation, vs vehicle group, FIG. 5
  time spent in open arms: an increase
Male Wister (Jcl) rats [2]; intraperitoneal, 5 minutes observation, vs vehicle group, FIG. 6
  number of entries into open arms: an increase
Male ICR (Jcl) mice; Example 4, single application, 3, 10 and 30 mg/kg (i.p.), 30 minutes before trial, FIGS. 7, 8
  immobility: didn't have an affect
Male ICR (Jcl) mice; Example 4, single application, 3, 10 and 30 mg/kg (i.p.)
  moving power at the trial of tail suspension test: didn't have an affect
Male ICR (Jcl) mice; Example 5, Compound A 1, 3 and 10 mg/kg with Paroxetine 1 mg/kg (i.p.)
  effect on the antidepressant action of Paroxetine: enhances the antidepressant action of Paroxetine

## CN1C(=O)CN=C(c2ccccc2)c2cc(Cl)ccc21 [Diazepam]
Male Wister (Jcl) rats [1]; control drug, dose not given
  effect in this system (control drug): exhibits an effect
Male Wister (Jcl) rats [2]; control drug, dose not given
  effect in this system (control drug): exhibits an effect

## Fc1ccc([C@@H]2CCNC[C@H]2COc2ccc3c(c2)OCO3)cc1 [Paroxetine]
Male ICR (Jcl) mice; Example 4, single application, 0.3, 1, 3 and 10 mg/kg (i.p.), vs vehicle group
  moving power at the trial of tail suspension test: increase a little

## COc1ccc2[nH]cc(CCNC(C)=O)c2c1 [melatonin]
Male Wister (Jcl) rats [1]; 30 mg/kg intraperitoneally, test 30 minutes after administration, vs vehicle group, Williams' test
  anti-conflicting effect: a little anti-conflicting effect was observed, but it was not a significant effect
Male Wister (Jcl) rats [2]; intraperitoneal, vs vehicle group, Williams' test
  action in elevated plus-maze (open arm entries and time): a significant action was not observed
